Results from PubChem BioAssay (NCI).
Several values for one entry are separate records, joined by “and”; a condition that tells them apart may be missing. Identical values can stand only once.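 Cells were grown in 96-well plates and exposed to each compound for 48 hours at five concentrations; endpoints were interpolated linearly between bracketing concentrations, or set to the highest concentration if not reached. GI50: concentration for 50% inhibition of growth. TGI marks complete inhibition of growth.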

Legend:
Test in all cases: NCI-60 cell line screen, 48 h
HT29 colon = test system: HT29 colon
KM12 colon = test system: KM12 colon
MOLT-4 leukemia = test system: MOLT-4 leukemia
NCI-H460 lung = test system: NCI-H460 lung
NCI-H522 lung = test system: NCI-H522 lung
SN12C renal = test system: SN12C renal
SW-620 colon = test system: SW-620 colon
TK-10 renal = test system: TK-10 renal
UACC-257 melanoma = test system: UACC-257 melanoma
K-562 leukemia = test system: K-562 leukemia

Row | SMILES | TGI (HT29 colon) | TGI (KM12 colon) | TGI (MOLT-4 leukemia) | TGI (NCI-H460 lung) | TGI (NCI-H522 lung) | TGI (SN12C renal) | TGI (SW-620 colon) | TGI (TK-10 renal) | TGI (UACC-257 melanoma) | TGI (K-562 leukemia) | GI50 (HT29 colon) | GI50 (K-562 leukemia) | GI50 (KM12 colon) | GI50 (MOLT-4 leukemia) | GI50 (NCI-H522 lung) | GI50 (SN12C renal) | GI50 (UACC-257 melanoma)
1 | COc1ccc2c(c1OC)C(=O)C2 | > 100 µM | > 100 µM | > 100 µM | > 100 µM | > 100 µM | > 100 µM | > 100 µM | > 100 µM | > 100 µM |  |  |  |  |  |  |  | 
2 | C(=N\NC1=NCCCCN1)/c1ccc2ccccc2c1 | 71.9 µM | > 100 µM | 53.2 µM | 62.9 µM | 87.1 µM | > 100 µM | 52.4 µM | > 100 µM | 46.6 µM | 40.2 µM |  |  |  |  |  |  | 
3 | COC(=O)c1ccc(OCCn2nnc(C(=O)NN)c2C(=O)NN)cc1 | > 100 µM | > 100 µM | > 100 µM | > 100 µM |  | > 100 µM |  | > 100 µM | > 100 µM | > 100 µM |  |  |  |  |  |  | 
4 | COc1ccc2[nH]c3ccc4cc[n+](CCN5CCC(C6CCN(CC[n+]7ccc8ccc9[nH]c%10ccc(OC)cc%10c9c8c7)CC6)CC5)cc4c3c2c1 | 31.4 µM and > 100 µM | 50 µM and > 92.7 µM | 50 µM and > 100 µM |  | > 50 µM and 5.27 µM | 50 µM | > 36.9 µM | 27.2 µM | 50 µM and > 100 µM | 1.41 µM and 7.67 µM | 0.938 µM | 0.164 µM | 0.631 µM | 0.209 µM | > 50 µM | 8.76 µM | 12.1 µM
5 | N=C1OC(CN2CCN(c3ccccc3)CC2)CN1C(=O)Nc1ccccc1 (configuration not stated) | > 100 µM | > 100 µM | > 100 µM | > 100 µM | > 100 µM | > 100 µM | > 100 µM | > 100 µM | > 100 µM | > 100 µM |  |  |  |  |  |  | 
6 | COc1cc(/C=C/c2ccc(OC)c(OC)c2)oc(=O)c1 | > 250 µM | > 250 µM | > 250 µM | > 250 µM | > 250 µM | > 250 µM | > 250 µM |  | > 250 µM | > 250 µM |  |  |  |  |  |  | 
7 | Cc1cccc2c(=O)c3cccc([C@H](C)C(=O)O)c3oc12 | > 100 µM | > 100 µM | > 100 µM | > 100 µM | > 100 µM | > 100 µM | > 100 µM | > 100 µM | > 100 µM | > 100 µM |  |  |  |  |  |  | 
8 | COc1cc(C[C@@]2(C)[C@@H]3CCC[C@H](CO)[C@@]3(C)CC[C@@H]2C)c(Cl)c(OC)c1 | 26 µM | 37.8 µM | 44.6 µM | 36.3 µM | 28.9 µM | 30 µM | 84.6 µM | 35.1 µM | 35.2 µM | 53 µM |  |  |  |  |  |  | 
9 | COC(=O)[C@@]12CSC[C@]1(C(=O)OC)N[C@@H](c1ccccc1O)C2 | > 100 µM | > 100 µM | > 100 µM | > 100 µM | > 100 µM | > 100 µM | > 100 µM | > 100 µM | > 100 µM | > 100 µM |  |  |  |  |  |  | 
10 | CC(C)(C)OC(=O)NC(CSCc1ccc(C(=O)c2ccccc2)cc1)C(=O)N1CCN(CCCCN2c3ccccc3Sc3cc(N=[N+]=[N-])ccc32)CC1 (configuration not stated) | > 100 µM | > 100 µM | > 100 µM | > 100 µM | > 100 µM | > 100 µM | > 100 µM | > 100 µM | > 100 µM | > 100 µM |  |  |  |  |  |  | 
11 | Cc1ccc([N+](=O)[O-])cc1S(=O)(=O)Nc1ccc(C2=NN(S(=O)(=O)c3cc([N+](=O)[O-])ccc3C)C(c3cccs3)C2)cc1 (configuration not stated) | > 100 µM | > 100 µM | 89.3 µM | 94.6 µM | 79.5 µM | > 100 µM | > 100 µM | > 100 µM | > 100 µM | 88.3 µM |  |  |  |  |  |  | 
12 | O=C(N/N=C\c1ccc(Cl)cc1)Nc1ccc2ccccc2c1 | > 100 µM | > 100 µM | > 100 µM | > 100 µM | > 100 µM | > 100 µM | > 100 µM | > 100 µM | > 100 µM | > 100 µM |  |  |  |  |  |  | 
13 | O=C(O)c1ccc2c(O)c(O)ccc2c1 | 21.2 µM | 31.3 µM | 18 µM |  | 36.4 µM | 27.7 µM | > 100 µM | 18.6 µM | 50.5 µM | > 63.6 µM |  |  |  |  |  |  | 
14 | Cc1nc2c(Cl)cc(Cl)cc2c2c1CCO2 | > 100 µM | > 100 µM | > 100 µM | > 100 µM | > 100 µM | > 100 µM | > 100 µM | > 100 µM | > 100 µM | > 100 µM |  |  |  |  |  |  | 
15 | COP(=O)(OC)C(N)Cc1c[nH]c2ccccc12 (configuration not stated) | > 100 µM |  | > 100 µM | > 100 µM | > 100 µM | > 100 µM | > 100 µM | > 100 µM | > 100 µM | > 100 µM |  |  |  |  |  |  | 
16 | CC1[C@@]2(O[C@@H]3C=C4C5CCC6Cc7nc8c(nc7C[C@@]6(C)C5C[C@H](O)[C@@]4(C)[C@]13O)CC1CCc3c(cc4c5c3C(O)C[C@H]5[C@@H](C)C3(O4)OC(C)(C)CC3O)[C@]1(C)C8)O[C@@](C)(CO)C[C@@H]2O (some centres not stated) | 1.65 µM | > 3.72 µM |  | > 3.72 µM | 2.39 µM | > 3.72 µM | 1.1 µM |  | > 3.72 µM | > 3.72 µM |  |  |  |  |  |  | 
17 | CC1=C[P+](c2ccccc2)(c2ccccc2)c2ccccc2O1 | 15.7 µM | 10.8 µM | 21 µM | > 100 µM | 17.3 µM | 5.29 µM | > 100 µM | 94.4 µM | > 100 µM | > 100 µM |  |  |  |  |  |  | 
18 | COc1ccc(-c2cc(-c3ccc(C)cc3)n(C3OC(COC(C)=O)C(OC(C)=O)C(OC(C)=O)C3OC(C)=O)c(=S)c2C#N)cc1 (configuration not stated) | > 100 µM | > 100 µM | > 100 µM | > 100 µM | > 100 µM | > 100 µM | > 100 µM | > 100 µM |  | > 100 µM |  |  |  |  |  |  | 
19 | N=c1oc2ccc3ccccc3c2cc1-c1nc2ccccc2c(=O)[nH]1 | 39.5 µM | 43 µM | > 100 µM | > 100 µM | 28.8 µM | > 100 µM | > 100 µM | 90.4 µM | > 100 µM | > 100 µM |  |  |  |  |  |  | 
20 | O=C1/C(=C/c2cccc([N+](=O)[O-])c2)N=C(c2ccccc2)N1c1nc2ccc(Sc3ccccc3)cc2[nH]1 | > 100 µM | > 100 µM | > 100 µM | > 100 µM | > 100 µM | > 100 µM | > 100 µM | > 100 µM | > 100 µM | > 100 µM |  |  |  |  |  |  | 
